Assay [1] concerns E-Cadherin. Description: Western blot for E-Cadherin in IPF patient fibroblasts. The class given is cell-based, human. As to conditions: RPMI1640+10% FBS, 2 days, also true at the mRNA level. On the procedure:
(§1) Western blots for S100A4 (also know as FSP-1 or fibroblast specific protein-1) and E-Cadherin were performed on whole cell lysates.
(A western blot detects proteins with antibodies after separation by electrophoresis.)

Assay [2] concerns TCF/β-catenin transcription. Description: Bat-Gal transgenic mice, bleomycin model, X-Gal/β-galactosidase read out of TCF/β-catenin transcription. The class given is in vivo. As to conditions: 5 mg/Kg/day s.c., intratracheal bleomycin. The procedure:
Furthermore, utilizing a specific inhibitor of Wnt/β-catenin/CBP driven transcription (ICG-001, 5 mg/Kg/day s.c.) Wnt/β-catenin was inhibited by >95% as judged by β-galactogidase activity. ICG-001 is among the structures described in detail below.
Using this murine model of pulmonary fibrosis in transgenic Bat-al mice, ICG-001 (5 mg/Kg/day) blocked >95% of bleomycin-induced TCF/βcatenin transcription.
These mice have a Beta-Galactosidase transgene driven by a TCF/Catenin driven promoter (i.e. a read out for activated Wnt/catenin signaling). The mice were given intratracheal saline or bleomycin and either treated with ICG-001 (5 mgs/Kg/day subcutaneously) or saline as vehicle control. The mice were sacrificed and the lungs sectioned and stained with X-Gal (blue color) A) intratracheal bleo+saline. B) intracheal bleo+ICG-001 C) saline+saline.
The dose was selected because ICG-001 reduces TCF/βCatenin driven O-Galactosidase expression >95% at 5 mgs/Kg/day.

The subject of assay [3] is S100A4. Description: RT-PCR for S100A4 in bleomycin treated mice. As to conditions: 5 mgs/Kg/day s.c., versus saline/saline mice. The class given is in vivo.
Assay [4] has as its system bleomycin induced pulmonary fibrosis. Briefly: Bleomycin induced pulmonary fibrosis in C57/B16 mice, trichrome histology, body weight, survival. The class given is in vivo. The procedure: Murine models of bleomycin induced fibrosis have been developed in order to study fibrotic disease progression.
There is an absence of airway epithelium in lower left compared to upper left (see arrow heads) and extensive collagen deposition (lower left). On the sixth day, either saline (upper right) or ICG-001 (5 mgs/Kg/day) was administered for 10 days after which the mice were sacrificed and sectioned. Of interest is the upper right (saline treatment) showing lack of normal airway epithelialization, extensive collagen deposition and intra-airway hypercellularity (fibroblasts and inflammatory influx).

In assay [5] the test system is collagen1A2. Briefly: RT-PCR for collagen1A2 in bleomycin treated mice. As to conditions: 5 mgs/Kg/day s.c., versus saline/saline mice. The class given is in vivo.
In assay [6] the test system is S100A4 (FSP-1). Description: Western blot for S100A4 in IPF patient fibroblasts. The class given is cell-based, human. As to conditions: RPMI1640+10% FBS, 2 days, also true at the mRNA level. The procedure: as §1
The target of assay [7] is β-catenin/p300 interaction (Homo sapiens, UniProt Q09472). As to conditions: cited from earlier work.
Assay [8] concerns the target β-catenin/CBP interaction (Homo sapiens, UniProt Q92793). As to conditions: cited from earlier work.
Where [9] appears, read: 5 mgs/Kg/day for 10 days from the sixth day after intratracheal bleomycin.

Chain of β-catenin/CBP interaction (Q92793 whole entry): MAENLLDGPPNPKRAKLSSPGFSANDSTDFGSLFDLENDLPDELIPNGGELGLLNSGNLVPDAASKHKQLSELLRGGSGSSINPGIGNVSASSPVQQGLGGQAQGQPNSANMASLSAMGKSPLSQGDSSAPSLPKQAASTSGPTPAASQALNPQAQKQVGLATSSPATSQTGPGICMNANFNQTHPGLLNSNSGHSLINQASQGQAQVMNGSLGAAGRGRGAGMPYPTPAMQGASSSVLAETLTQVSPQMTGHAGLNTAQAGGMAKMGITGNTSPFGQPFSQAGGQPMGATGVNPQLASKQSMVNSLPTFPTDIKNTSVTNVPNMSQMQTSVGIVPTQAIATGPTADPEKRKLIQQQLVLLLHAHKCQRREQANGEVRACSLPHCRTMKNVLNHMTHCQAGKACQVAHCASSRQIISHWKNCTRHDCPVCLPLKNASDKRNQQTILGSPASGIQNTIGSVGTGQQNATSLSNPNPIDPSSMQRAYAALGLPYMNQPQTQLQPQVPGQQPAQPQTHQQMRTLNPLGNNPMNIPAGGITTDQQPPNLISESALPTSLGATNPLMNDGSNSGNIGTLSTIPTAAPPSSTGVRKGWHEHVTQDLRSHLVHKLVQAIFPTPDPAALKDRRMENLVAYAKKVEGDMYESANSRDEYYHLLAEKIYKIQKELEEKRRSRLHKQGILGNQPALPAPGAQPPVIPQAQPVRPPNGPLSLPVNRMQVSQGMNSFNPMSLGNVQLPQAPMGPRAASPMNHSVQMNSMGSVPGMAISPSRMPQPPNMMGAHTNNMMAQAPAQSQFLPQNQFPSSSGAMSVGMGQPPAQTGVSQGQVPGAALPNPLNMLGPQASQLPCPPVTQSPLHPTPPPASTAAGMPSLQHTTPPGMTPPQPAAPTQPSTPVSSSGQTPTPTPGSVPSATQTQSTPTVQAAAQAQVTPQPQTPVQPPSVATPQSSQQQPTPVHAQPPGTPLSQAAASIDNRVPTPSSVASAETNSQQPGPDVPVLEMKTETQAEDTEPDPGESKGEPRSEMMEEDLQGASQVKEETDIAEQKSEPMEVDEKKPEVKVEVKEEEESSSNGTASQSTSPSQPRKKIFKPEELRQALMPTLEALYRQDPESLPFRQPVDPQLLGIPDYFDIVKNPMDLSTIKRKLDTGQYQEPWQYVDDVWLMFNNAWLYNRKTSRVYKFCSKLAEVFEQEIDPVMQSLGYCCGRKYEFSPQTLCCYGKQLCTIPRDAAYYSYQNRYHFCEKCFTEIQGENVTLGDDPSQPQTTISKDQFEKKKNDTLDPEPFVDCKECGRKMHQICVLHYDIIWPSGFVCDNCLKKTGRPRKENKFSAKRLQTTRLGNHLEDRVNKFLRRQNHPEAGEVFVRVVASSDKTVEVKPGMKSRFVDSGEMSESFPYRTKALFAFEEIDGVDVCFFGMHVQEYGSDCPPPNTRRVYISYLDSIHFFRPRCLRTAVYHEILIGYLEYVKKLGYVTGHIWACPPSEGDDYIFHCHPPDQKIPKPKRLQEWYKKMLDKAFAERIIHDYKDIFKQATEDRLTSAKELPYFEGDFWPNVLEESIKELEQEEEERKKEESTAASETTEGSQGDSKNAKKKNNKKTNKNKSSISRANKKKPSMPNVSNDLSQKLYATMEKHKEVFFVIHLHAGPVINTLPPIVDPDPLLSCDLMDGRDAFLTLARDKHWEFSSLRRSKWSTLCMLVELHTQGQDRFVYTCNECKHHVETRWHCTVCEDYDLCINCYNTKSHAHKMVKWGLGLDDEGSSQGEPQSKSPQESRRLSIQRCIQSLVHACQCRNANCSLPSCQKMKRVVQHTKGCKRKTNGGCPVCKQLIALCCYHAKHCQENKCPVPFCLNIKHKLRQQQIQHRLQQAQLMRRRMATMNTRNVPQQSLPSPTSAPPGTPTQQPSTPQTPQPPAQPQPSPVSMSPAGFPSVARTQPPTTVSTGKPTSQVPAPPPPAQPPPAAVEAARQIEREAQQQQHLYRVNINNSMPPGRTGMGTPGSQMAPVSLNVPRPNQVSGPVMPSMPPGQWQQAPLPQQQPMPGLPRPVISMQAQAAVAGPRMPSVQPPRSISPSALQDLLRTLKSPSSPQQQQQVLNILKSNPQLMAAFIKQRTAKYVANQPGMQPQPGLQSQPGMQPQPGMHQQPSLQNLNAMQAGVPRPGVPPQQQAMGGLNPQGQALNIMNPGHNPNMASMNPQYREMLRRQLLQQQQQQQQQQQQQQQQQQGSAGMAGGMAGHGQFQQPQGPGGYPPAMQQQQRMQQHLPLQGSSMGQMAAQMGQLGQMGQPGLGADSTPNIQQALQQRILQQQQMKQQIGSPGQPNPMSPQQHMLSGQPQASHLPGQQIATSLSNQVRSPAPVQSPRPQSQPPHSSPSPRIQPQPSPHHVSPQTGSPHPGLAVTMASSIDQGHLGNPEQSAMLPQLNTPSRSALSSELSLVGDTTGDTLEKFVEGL
Chain of β-catenin/p300 interaction (Q09472 whole entry): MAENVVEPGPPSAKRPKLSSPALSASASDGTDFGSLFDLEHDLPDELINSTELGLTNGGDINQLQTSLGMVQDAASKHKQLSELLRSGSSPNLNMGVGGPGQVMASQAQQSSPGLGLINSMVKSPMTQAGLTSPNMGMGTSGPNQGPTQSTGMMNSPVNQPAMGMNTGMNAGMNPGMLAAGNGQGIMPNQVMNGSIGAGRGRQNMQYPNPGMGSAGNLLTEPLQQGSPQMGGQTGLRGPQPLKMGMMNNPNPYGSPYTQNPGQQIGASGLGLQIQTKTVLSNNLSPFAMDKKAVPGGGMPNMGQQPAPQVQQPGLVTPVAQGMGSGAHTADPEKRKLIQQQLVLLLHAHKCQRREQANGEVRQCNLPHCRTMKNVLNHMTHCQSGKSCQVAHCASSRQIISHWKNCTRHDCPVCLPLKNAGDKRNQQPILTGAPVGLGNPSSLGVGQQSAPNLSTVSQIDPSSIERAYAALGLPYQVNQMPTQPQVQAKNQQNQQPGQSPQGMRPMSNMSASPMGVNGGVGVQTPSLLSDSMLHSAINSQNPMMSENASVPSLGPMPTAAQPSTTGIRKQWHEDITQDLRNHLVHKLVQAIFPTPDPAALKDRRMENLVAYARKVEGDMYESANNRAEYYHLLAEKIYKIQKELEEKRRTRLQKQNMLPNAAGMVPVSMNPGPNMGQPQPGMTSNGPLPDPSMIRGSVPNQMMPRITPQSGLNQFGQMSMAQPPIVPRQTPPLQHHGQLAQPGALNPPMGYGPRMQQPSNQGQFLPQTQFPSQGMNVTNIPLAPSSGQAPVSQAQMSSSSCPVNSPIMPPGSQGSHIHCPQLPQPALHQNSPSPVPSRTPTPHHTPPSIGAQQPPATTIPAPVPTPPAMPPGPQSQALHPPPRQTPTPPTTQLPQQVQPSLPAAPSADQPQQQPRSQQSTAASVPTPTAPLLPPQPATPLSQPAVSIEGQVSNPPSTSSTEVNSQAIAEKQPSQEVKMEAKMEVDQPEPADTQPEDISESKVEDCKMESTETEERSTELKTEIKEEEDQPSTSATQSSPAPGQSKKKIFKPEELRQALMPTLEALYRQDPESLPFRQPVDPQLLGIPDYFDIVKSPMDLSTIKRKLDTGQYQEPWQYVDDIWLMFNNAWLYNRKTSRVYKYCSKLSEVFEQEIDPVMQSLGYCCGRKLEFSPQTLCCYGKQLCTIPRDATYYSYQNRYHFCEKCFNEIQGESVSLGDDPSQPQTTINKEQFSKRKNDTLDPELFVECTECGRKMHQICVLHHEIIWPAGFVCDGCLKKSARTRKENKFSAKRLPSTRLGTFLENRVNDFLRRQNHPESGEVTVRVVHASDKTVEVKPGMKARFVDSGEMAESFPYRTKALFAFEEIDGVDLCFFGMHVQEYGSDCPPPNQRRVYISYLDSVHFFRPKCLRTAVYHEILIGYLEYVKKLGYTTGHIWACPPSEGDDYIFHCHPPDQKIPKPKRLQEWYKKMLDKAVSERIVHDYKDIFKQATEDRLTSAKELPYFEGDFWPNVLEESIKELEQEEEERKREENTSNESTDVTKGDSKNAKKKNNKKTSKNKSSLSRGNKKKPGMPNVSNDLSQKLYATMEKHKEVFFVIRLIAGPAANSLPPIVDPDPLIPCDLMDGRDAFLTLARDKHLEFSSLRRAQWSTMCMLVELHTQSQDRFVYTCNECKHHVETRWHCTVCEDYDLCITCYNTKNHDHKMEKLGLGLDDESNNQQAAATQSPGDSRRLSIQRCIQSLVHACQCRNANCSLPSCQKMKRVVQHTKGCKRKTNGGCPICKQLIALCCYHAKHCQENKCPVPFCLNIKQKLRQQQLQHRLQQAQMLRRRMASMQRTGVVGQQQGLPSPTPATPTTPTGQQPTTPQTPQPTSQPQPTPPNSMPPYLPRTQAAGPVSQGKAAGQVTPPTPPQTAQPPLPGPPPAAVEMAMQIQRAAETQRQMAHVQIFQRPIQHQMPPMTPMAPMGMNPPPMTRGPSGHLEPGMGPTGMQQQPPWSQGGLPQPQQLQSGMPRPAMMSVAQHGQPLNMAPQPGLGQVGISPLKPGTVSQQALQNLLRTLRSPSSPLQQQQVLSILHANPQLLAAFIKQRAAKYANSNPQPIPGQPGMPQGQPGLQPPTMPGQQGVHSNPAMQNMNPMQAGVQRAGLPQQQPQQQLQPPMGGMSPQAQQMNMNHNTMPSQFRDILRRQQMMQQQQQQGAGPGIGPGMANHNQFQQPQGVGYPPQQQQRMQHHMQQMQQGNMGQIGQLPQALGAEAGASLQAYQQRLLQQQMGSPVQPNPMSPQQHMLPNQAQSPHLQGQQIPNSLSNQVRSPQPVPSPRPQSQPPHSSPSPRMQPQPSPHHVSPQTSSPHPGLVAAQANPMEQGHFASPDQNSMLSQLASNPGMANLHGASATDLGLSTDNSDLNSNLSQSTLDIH

On to `O=C1[C@H](Cc2ccc(O)cc2)N2C(=O)CCN(C(=O)NCc3ccccc3)[C@H]2CN1Cc1cccc2ccccc12` [ICG-001], for which, in assay [1], the “E-cadherin expression (Western blot, whole cell lysates)” value is given as “increased E-cadherin expression”. Moreover, the “inhibition of bleomycin-induced TCF/β-catenin transcription (β-galactosidase activity)” value in assay [2] is over 95%. Also, the “S100A4 message (RT-PCR)” value in assay [3] is “reduced essentially to negative control”. In assay [4] (5 mg/Kg/day, murine bleomycin model), the “disease progression, as judged by reduced mortality, histopathology and endogenous gene expression” value was “not only halts but reverses disease progression”. In addition, in assay [4] (setting [9]), the “airway histology (lung sections)” value was “the airway looks essentially normal”, the body weight entry is listed as “regained normal body weight” and the “collagen levels (trichrome stain)” value was “normal collagen levels”. In addition, the survival entry in assay [4] (5 mgs/Kg/day for 10 days from the sixth day after intratracheal bleomycin, untreated controls did not survive) is given as “survived”. For the same compound, the “collagen1A2 message (RT-PCR)” value in assay [5] is listed as “reduced essentially to negative control”. For the same compound, the “S100A4 expression (Western blot, whole cell lysates)” value in assay [6] is on record as “decreased S100A4 expression”. The “effect on β-catenin/p300 interaction” value in assay [7] is on record as “without interfering”. Also, the “effect on β-catenin/CBP interaction” value in assay [8] is listed as “selectively blocks the β-catenin/CBP interaction”.

Source of the values: US20080153743A1, “METHODS RELATING TO THE TREATMENT OF FIBROSIS” (UNIVERSITY OF WASHINGTON, priority 2005, published 2008).
